Patent US8916599B2, “1H-benz imidazole-5-carboxamides as anti-inflammatory agents” (Orexo AB, priority 2008, dated 2014)

Key:
[1] = biological target: T1, recombinant human mPGES-1 (Homo sapiens, UniProt O14684); assay: mPGES-1 inhibition test (microsomes, PGH2 substrate, HTRF detection of PGE2); assay type: biochemical; conditions: inhibition of mPGES-1 at 10 μM
T1 construct: made in house; host or cells: Rosetta E. coli (microsomal/membrane fraction)
T1 sequence (O14684 1-152): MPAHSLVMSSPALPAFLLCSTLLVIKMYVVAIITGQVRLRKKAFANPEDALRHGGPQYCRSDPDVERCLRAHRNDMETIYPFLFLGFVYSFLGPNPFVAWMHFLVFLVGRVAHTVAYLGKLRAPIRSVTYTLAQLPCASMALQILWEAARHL
Method in brief: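 Microsomes from E. coli expressing recombinant human mPGES-1 in 0.1 M KPi pH 7.4 with 2.5 mM GSH were preincubated with inhibitor 25 min at room temperature. PGH2 was then added, and the reaction was stopped after 1 min with acidified FeCl2. PGE2 was quantified by HTRF (665/620 nm ratio) against a synthetic PGE2 standard curve.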

| SMILES | melting point [°C] | inhibition at 10 µM [1] [%] |
| --- | --- | --- |
| COCCOc1cccc(NC(=O)c2ccc3c(c2)nc(Nc2c(Cl)cccc2Cl)n3C)n1 [Example 302, 2-(2,6-Dichloro-phenylamino)-1-methyl-1H-benzimidazole-5-carboxylic acid [6-(2-methoxy-ethoxy)-pyridin-2-yl]-amide] | 185 to 187 | 86 |
| O=C(Nc1nc(C(F)(F)F)cs1)c1ccc2[nH]c(Nc3c(Cl)cccc3Cl)nc2c1 [Example 319, 2-(2,6-Dichloro-phenylamino)-1H-benzimidazole-5-carboxylic acid (4-trifluoro-methyl-thiazol-2-yl)-amide] | 301 to 303 | 100 |
| Cc1ccc(Cl)cc1NC(=O)c1ccc2[nH]c(Nc3c(Cl)cccc3Cl)nc2c1 [Example 110, 2-(2,6-Dichloro-phenylamino)-1H-benzimidazole-5-carboxylic acid (5-chloro-2-methyl-phenyl)-amide] | 178 to 180 | 96 |
| Cc1ccnc(NC(=O)c2ccc3c(c2)nc(Nc2c(Cl)cccc2Cl)n3C)c1 [Example 335, 2-(2,6-Dichloro-phenylamino)-1-methyl-1H-benzimidazole-5-carboxylic acid (4-methyl-pyridin-2-yl)-amide] | 157 to 159 | 95 |
| Cn1c(Nc2c(Cl)cccc2Cl)nc2cc(C(=O)Nc3cccc(Cl)c3)ccc21 [Example 297, 2-(2,6-Dichloro-phenylamino)-1-methyl-1H-benzimidazole-5-carboxylic acid (3-chloro-phenyl)-amide] | 175 to 176 | 97 |
| Cc1c(Cl)cccc1NC(=O)c1ccc2[nH]c(Nc3c(Cl)cccc3Cl)nc2c1 [Example 280, 2-(2,6-Dichloro-phenylamino)-1H-benzimidazole-5-carboxylic acid (3-chloro-2-methyl-phenyl)-amide] | 267 to 269 | 100 |
| O=C(Nc1ccccn1)c1ccc2[nH]c(Nc3c(Cl)cccc3Cl)nc2c1 [Example 293, 2-(2,6-Dichloro-phenylamino)-1H-benzimidazole-5-carboxylic acid pyridin-2-ylamide] | 245 to 247 | 87 |
| O=C(Nc1cc(C(F)(F)F)ccn1)c1ccc2[nH]c(Nc3c(Cl)cccc3Cl)nc2c1 [Example 304, 2-(2,6-Dichloro-phenylamino)-1H-benzimidazole-5-carboxylic acid (4-trifluoromethyl-pyridin-2-yl)-amide] | 179 to 182 | 98 |
| O=C(Nc1ccc(Br)cc1)c1ccc2[nH]c(Nc3ccccc3OC(F)(F)F)nc2c1 [Example 106, 2-(2-Trifluoromethoxy-phenylamino)-1H-benzimidazole-5-carboxylic acid (4-bromo-phenyl)-amide] | 241 to 243 | 82 |
| O=C(Nc1ccccc1C(F)(F)F)c1ccc2[nH]c(Nc3c(Cl)cccc3Cl)nc2c1 [Example 113, 2-(2,6-Dichloro-phenylamino)-1H-benzimidazole-5-carboxylic acid (2-trifluoromethyl-phenyl)-amide] | 143 to 145 | 91 |
| O=C(Nc1ccc(Br)cn1)c1ccc2[nH]c(Nc3c(Cl)cccc3Cl)nc2c1 [Example 303, 2-(2,6-Dichloro-phenylamino)-1H-benzimidazole-5-carboxylic acid (5-bromo-pyridin-2-yl)-amide] | 183 to 185 | 90 |
| Cn1c(Nc2c(F)cccc2Cl)nc2cc(C(=O)NC3CCC(C(C)(C)C)CC3)c(F)cc21 (stereo not drawn) [Example 354, N-(4-tert.-Butylcyclohexyl)-2-(2-chloro-6-fluorophenylamino)-6-fluoro-1-methyl-1H-benzimidazole-5-carboxamide] |  | 100 |
| COc1cc2[nH]c(Nc3c(Cl)ccc(CC#N)c3Cl)nc2cc1C(=O)Nc1ccc(Br)cc1 [Example 639, 2-(2,6-Dichloro-3-cyanomethyl-phenylamino)-N-(4-bromphenyl)-6-methoxy-1H-benzimidazol-5-carboxamide] |  | 99 |
| Cn1c(Nc2c(Cl)cccc2Cl)nc2cc(C(=O)NCCC3CCC3)c(F)cc21 [Example 397, N-(2-Cyclobutylethyl)-2-(2,6-dichlorophenylamino)-6-fluoro-1-methyl-1H-benzimidazole-5-carboxamide] |  | 99 |
| N[C@H]1C[C@H](n2c(Nc3c(Cl)cccc3Cl)nc3cc(C(=O)Nc4cc(Cl)ccn4)ccc32)C1 [Example 270, 2-(2,6-Dichloro-phenylamino)-1-(trans-3-amino-cyclobutyl)-1H-benzimidazole-5-carboxylic acid (4-chloro-pyridin-2-yl)-amide] |  | 96 |
| O=C(Nc1ccc(Br)cc1)c1ccc2[nH]c(Nc3c(Cl)cccc3Cl)nc2c1 [Example 66, 2-(2,6-Dichloro-phenylamino)-1H-benzimidazole-5-carboxylic acid (4-bromo-phenyl)-amide] |  | 100 |
| CN(C)CCn1c(Nc2c(Cl)cccc2Cl)nc2cc(C(=O)Nc3cc(Cl)ccn3)ccc21 [Example 273, 2-(2,6-Dichloro-phenylamino)-1-(2-dimethylamino-ethyl)-1H-benzimidazole-5-carboxylic acid (4-chloro-pyridin-2-yl)-amide] |  | 100 |
| O=C(NC1CCc2ccccc2C1)c1cc2[nH]c(Nc3c(Cl)cccc3Cl)nc2cc1F (stereo not drawn) [Example 150, 2-(2,6-Dichloro-phenylamino)-6-fluoro-3H-benzimidazole-5-carboxylic acid (1,2,3,4-tetrahydro-naphthalen-2-yl)-amide] |  | 100 |
| Cn1c(Nc2c(Cl)cccc2Cl)nc2cc(C(=O)Nc3ccc(C#N)cn3)ccc21 [Example 544, N-(5-Cyanopyridin-2-yl)-2-(2,6-dichlorophenylamino)-1-methyl-1H-benzimidazole-5-carboxamide] | 234 to 236 | 91 |
| O=C(NCc1ccccc1C(F)(F)F)c1cc(Br)c2[nH]c(Nc3c(Cl)cccc3Cl)nc2c1 [Example 350, 7-Bromo-2-(2,6-dichloro-phenylamino)-1H-benzimidazole-5-carboxylic acid 2-trifluoromethyl-benzylamide] | 176 to 178 | 99 |
| Cn1c(Nc2c(Cl)cccc2Cl)nc2cc(C(=O)NC3CCCCC3O)ccc21 (stereo not drawn) [Example 237, 2-(2,6-Dichloro-phenylamino)-1-methyl-1H-benzimidazole-5-carboxylic acid (2-hydroxy-cyclohexyl)-amide] |  | 87 |
| COc1cc2c(cc1C(=O)NCc1ncccc1C1CC1)nc(Nc1c(Cl)cccc1Cl)n2C [Example 367, N-((3-Cyclopropylpyridin-2-yl)-methyl)-2-(2,6-dichlorophenylamino)-6-methoxy-1-methyl-1H-benzimidazole-5-carboxamide] |  | 100 |
| Cc1nc(NC(=O)c2cc3nc(Nc4c(Cl)cccc4Cl)n(C)c3cc2F)cc2c1CCCC2 [Example 131, 2-(2,6-Dichloro-phenylamino)-6-fluoro-1-methyl-1H-benzimidazole-5-carboxylic acid (1-methyl-5,6,7,8-tetrahydro-isoquinolin-3-yl)-amide] |  | 96 |
| Cn1c(Nc2c(Cl)cc(F)cc2Cl)nc2cc(C(=O)Nc3ccc(Br)cc3)ccc21 [Example 578, 2-(2,6-Dichloro-4-fluoro-phenylamino)-N-(4-bromo-phenyl)-1-methyl-1H-benzimidazole-5-carboxamide] |  | 100 |
| Cn1c(Nc2c(F)cccc2Cl)nc2cc(C(=O)NCCCC3CC3)c(F)cc21 [Example 390, 2-(2-Chloro-6-fluorophenylamino)-N-(3-cyclopropylpropyl)-6-fluoro-1-methyl-1H-benzimidazole-5-carboxamide] |  | 100 |
| Cn1c(Nc2c(F)cccc2Cl)nc2cc(C(=O)NC3CCC4(CC3)CC4)ccc21 [Example 441, 2-(2-Chloro-6-fluorophenylamino)-1-methyl-N-(spiro[2.5]octan-6-yl)-1H-benzimidazole-5-carboxamide] |  | 97 |
